Patent US4435583A, “2-Halo-substituted monic acid A useful as antibacterial compounds” (Beecham Group p.l.c., priority 1981, dated 1984)
In brackets after ≈: the same amount, converted by molar mass.

How the values were obtained:
Assay type in all cases: cell-based
M. hyorhinis ATCC 25021 = assay: In vitro anti-mycoplasmal MIC; details: Mesomycoplasma hyorhinis, ATCC25021, 144 h, Friis broth, 0.9% agarose, 6 days, 37° C., read-out: MIC
M. dispar NCTC 10125 = assay: In vitro anti-mycoplasmal MIC; details: 144 h, Friis broth, 0.9% agarose, 6 days, 37° C., read-out: MIC
M. suipneumoniae Str.11 = assay: In vitro anti-mycoplasmal MIC; details: Friis broth, 0.9% agarose, 6 days, 37° C.
M. bovis NCTC 10131 = assay: microbe, parasite or virus in culture; details: M. bovis NCTC 10131; Friis broth, 0.9% agarose; 6 days, 37° C.
[1] = test system: M. hyosynoviae ATCC 25591; assay: In vitro anti-mycoplasmal MIC; details: 144 h, Friis broth, 0.9% agarose, 6 days, 37° C., read-out: MIC
Staph. aureus Oxford [2] = assay: MIC against veterinary bacteria; details: Diagnostic Sensitivity Test Agar, 18 hours, 37° C.
Protocol: (§1) The values were determined using a two fold serial dilutions in Diagnostic Sensitivity Test Agar with an inoculum of 10^4 organisms and incubation for 18 hours at 37° C.

Bord. bronchiseptica B08 = assay: MIC against veterinary bacteria; details: Diagnostic Sensitivity Test Agar, 18 hours, 37° C.
Protocol: as §1

Bord. bronchiseptica B09 = assay: MIC against veterinary bacteria; details: Diagnostic Sensitivity Test Agar, 18 hours, 37° C.
Protocol: as §1

Strep. agalactiae SPA1 = assay: MIC against veterinary bacteria; details: Diagnostic Sensitivity Test Agar, 18 hours, 37° C.
Protocol: as §1

E. coli NCTC 10418 [3] = assay: MIC against veterinary bacteria; details: Diagnostic Sensitivity Test Agar, 18 hours, 37° C.
Protocol: as §1

Staph. aureus B4 = assay: MIC against veterinary bacteria; details: Diagnostic Sensitivity Test Agar, 18 hours, 37° C.
Protocol: as §1

Past. multocida PA1 = assay: MIC against veterinary bacteria; details: Diagnostic Sensitivity Test Agar, 18 hours, 37° C.
Protocol: as §1

Strep. dysgalactiae SPD1 = assay: MIC against veterinary bacteria; details: Diagnostic Sensitivity Test Agar, 18 hours, 37° C.
Protocol: as §1

Strep. uberis SPU1 = assay: MIC against veterinary bacteria; details: Strep. uberis SPU1; Diagnostic Sensitivity Test Agar; 18 hours, 37° C.
Protocol: as §1

Past. haemolytica PA5 = assay: MIC against veterinary bacteria; details: Diagnostic Sensitivity Test Agar, 18 hours, 37° C.
Protocol: as §1

E. coli E1 = assay: MIC against veterinary bacteria; details: Diagnostic Sensitivity Test Agar, 18 hours, 37° C.
Protocol: as §1

Past. multocida PA2 = assay: MIC against veterinary bacteria; details: Diagnostic Sensitivity Test Agar, 18 hours, 37° C.
Protocol: as §1

[4] = test system: Strep. suis (group D) SPS11; assay: MIC against veterinary bacteria; details: Diagnostic Sensitivity Test Agar, 18 hours, 37° C.
Protocol: as §1

S. dublin S7 = assay: MIC against veterinary bacteria; details: Diagnostic Sensitivity Test Agar, 18 hours, 37° C.
Protocol: as §1

S. typhimurium S18 = assay: MIC against veterinary bacteria; details: Diagnostic Sensitivity Test Agar, 18 hours, 37° C.
Protocol: as §1

[5] = test system: Erysipelothrix rhusiopathiae NCTC 8163; assay: MIC against veterinary bacteria; details: Diagnostic Sensitivity Test Agar, 18 hours, 37° C.
Protocol: as §1

[6] = test system: Corynebacterium pyogenes CY1; assay: MIC against veterinary bacteria; details: Diagnostic Sensitivity Test Agar, 18 hours, 37° C.
Protocol: as §1

Staph. aureus 152 = assay: MIC against veterinary bacteria; details: Diagnostic Sensitivity Test Agar, 18 hours, 37° C.
Protocol: as §1

M. suipneumoniae NB12 = assay: In vitro anti-mycoplasmal MIC; details: Friis broth, 0.9% agarose, 6 days, 37° C.
[7] = test system: M. suipneumoniae J2206/183b; assay: In vitro anti-mycoplasmal MIC; details: Friis broth, 0.9% agarose, 6 days, 37° C.
M. gallisepticum S6 = assay: In vitro anti-mycoplasmal MIC; details: Friis broth, 0.9% agarose, 6 days, 37° C.
M. suipneumoniae LABER = assay: In vitro anti-mycoplasmal MIC; details: Mesomycoplasma hyopneumoniae, 144 h, Friis broth, 0.9% agarose, 6 days, 37° C., read-out: MIC
M. pneumoniae ATCC 15492 = assay: In vitro anti-mycoplasmal MIC; details: Friis broth, 0.9% agarose, 6 days, 37° C.
M. suipneumoniae TAM 6N = assay: In vitro anti-mycoplasmal MIC; details: Friis broth, 0.9% agarose, 6 days, 37° C.
M. suipneumoniae HK(2) = assay: In vitro anti-mycoplasmal MIC; details: Friis broth, 0.9% agarose, 6 days, 37° C.
M. hyorhinis ATCC 23234 = assay: In vitro anti-mycoplasmal MIC; details: Mesomycoplasma hyorhinis, ATCC23234, 144 h, Friis broth, 0.9% agarose, 6 days, 37° C., read-out: MIC
M. suipneumoniae MS16 = assay: In vitro anti-mycoplasmal MIC; details: Mesomycoplasma hyopneumoniae, 144 h, Friis broth, 0.9% agarose, 6 days, 37° C., read-out: MIC
M. suipneumoniae UCD 1 = assay: In vitro anti-mycoplasmal MIC; details: Friis broth, 0.9% agarose, 6 days, 37° C.
[8] = test system: M. suipneumoniae NCTC 10110; assay: In vitro anti-mycoplasmal MIC; details: Friis broth, 0.9% agarose, 6 days, 37° C.
Staph. aureus Oxford [9] = assay: MIC against human bacteria; details: nutrient agar, 5% chocolated horse blood, 18 hours, 37° C.
Protocol: (§2) The values were determined by serial dilutions in nutrient agar with 5% chocolated horse blood after incubations for 18 hours at 37° C.

[10] = test system: Ps. aeruginosa NCTC 10662; assay: MIC against human bacteria; details: nutrient agar, 5% chocolated horse blood, 18 hours, 37° C.
Protocol: as §2

Bacillus subtilis 6633 = assay: MIC against human bacteria; details: nutrient agar, 5% chocolated horse blood, 18 hours, 37° C.
Protocol: as §2

Sarcina lutea 8340 = assay: MIC against human bacteria; details: nutrient agar, 5% chocolated horse blood, 18 hours, 37° C.
Protocol: as §2

[11] = test system: Haemophilus influenzae Q1; assay: MIC against human bacteria; details: nutrient agar, 5% chocolated horse blood, 18 hours, 37° C., read-out: MIC
Protocol: as §2

E. coli ESS = assay: MIC against human bacteria; details: nutrient agar, 5% chocolated horse blood, 18 hours, 37° C.
Protocol: as §2

Strep. pneumoniae CN33 = assay: MIC against human bacteria; details: nutrient agar, 5% chocolated horse blood, 18 hours, 37° C.
Protocol: as §2

Staph. aureus Russell = assay: MIC against human bacteria; details: nutrient agar, 5% chocolated horse blood, 18 hours, 37° C.
Protocol: as §2

E. coli NCTC 10418 [12] = assay: MIC against human bacteria; details: nutrient agar, 5% chocolated horse blood, 18 hours, 37° C.
Protocol: as §2

Staph. aureus W2827 = assay: MIC against human bacteria; details: nutrient agar, 5% chocolated horse blood, 18 hours, 37° C.
Protocol: as §2

Strep. 641848-C = assay: MIC against human bacteria; details: nutrient agar, 5% chocolated horse blood, 18 hours, 37° C.
Protocol: as §2

[13] = test system: Strep. pyrogenes R80/421-A; assay: MIC against human bacteria; details: nutrient agar, 5% chocolated horse blood, 18 hours, 37° C.
Protocol: as §2

Strep. 2788-B = assay: MIC against human bacteria; details: nutrient agar, 5% chocolated horse blood, 18 hours, 37° C.
Protocol: as §2

K. aerogenes A = assay: MIC against human bacteria; details: nutrient agar, 5% chocolated horse blood, 18 hours, 37° C.
Protocol: as §2

Past. multocida 1633 = assay: MIC against human bacteria; details: nutrient agar, 5% chocolated horse blood, 18 hours, 37° C.
Protocol: as §2

Strep. faecalis I = assay: MIC against human bacteria; details: nutrient agar, 5% chocolated horse blood, 18 hours, 37° C.
Protocol: as §2

[14] = test system: Neisseria catarrhalis 1502; assay: MIC against human bacteria; details: nutrient agar, 5% chocolated horse blood, 18 hours, 37° C.
Protocol: as §2

P. mirabilis 889 = assay: MIC against human bacteria; details: nutrient agar, 5% chocolated horse blood, 18 hours, 37° C.
Protocol: as §2

[15] = test system: Corynebacterium xerosis 9755; assay: MIC against human bacteria; details: nutrient agar, 5% chocolated horse blood, 18 hours, 37° C.
Protocol: as §2

[16] = test system: Haemophilus influenzae Wy21; assay: MIC against human bacteria; details: nutrient agar, 5% chocolated horse blood, 18 hours, 37° C., read-out: MIC
Protocol: as §2

[17] = test system: M. suipneumoniae ATCC 25095; assay: In vitro anti-mycoplasmal MIC; details: Friis broth, 0.9% agarose, 6 days, 37° C.
[18] = test system: M. bovigenitalium ATCC 14173; assay: In vitro anti-mycoplasmal MIC; details: 144 h, Friis broth, 0.9% agarose, 6 days, 37° C., read-out: MIC
[19] = test system: M. suipneumoniae PW/C/210; assay: In vitro anti-mycoplasmal MIC; details: Mesomycoplasma hyopneumoniae, 144 h, Friis broth, 0.9% agarose, 6 days, 37° C., read-out: MIC
M. suipneumoniae JF435 = assay: In vitro anti-mycoplasmal MIC; details: Friis broth, 0.9% agarose, 6 days, 37° C.

Q: What does the source list for `CCOC(=O)C(F)=C(C)CC1OCC(CC2OC2C(C)C(C)O)C(O)C1O` [Example 2, Ethyl-4-[5S-(2S,3S-epoxy-5S-hydroxy-4S-methylhexyl)-3R, 4R-dihydroxytetrahydropyran-2S-yl]-2-fluoro-3-methylbut-2(E)-enoate]?
A: MIC (M. hyorhinis ATCC 25021): 5 µg/mL (≈ 12.8 µM); MIC (M. dispar NCTC 10125): 2.5 µg/mL (≈ 6.4 µM); MIC (M. suipneumoniae Str.11): 5.0 µg/mL (≈ 12.8 µM); MIC (M. bovis NCTC 10131): 0.25 µg/mL (≈ 0.64 µM); MIC [1]: 10 µg/mL (≈ 25.6 µM); MIC (Staph. aureus Oxford [2]): 40.0 µg/mL (≈ 102 µM); MIC (Bord. bronchiseptica B08): > 80.0 µg/mL; MIC (Bord. bronchiseptica B09): > 80.0 µg/mL; MIC (Strep. agalactiae SPA1): 80.0 µg/mL (≈ 205 µM); MIC (E. coli NCTC 10418 [3]): > 80.0 µg/mL; MIC (Staph. aureus B4): 40.0 µg/mL (≈ 102 µM); MIC (Past. multocida PA1): 40.0 µg/mL (≈ 102 µM); MIC (Strep. dysgalactiae SPD1): 40.0 µg/mL (≈ 102 µM); MIC (Strep. uberis SPU1): 20.0 µg/mL (≈ 51.2 µM); MIC (Past. haemolytica PA5): 80.0 µg/mL (≈ 205 µM); MIC (E. coli E1): > 80.0 µg/mL; MIC (Past. multocida PA2): 20.0 µg/mL (≈ 51.2 µM); MIC [4]: 80.0 µg/mL (≈ 205 µM); MIC (S. dublin S7): > 80.0 µg/mL; MIC (S. typhimurium S18): > 80.0 µg/mL; MIC [5]: 80.0 µg/mL (≈ 205 µM); MIC [6]: 80.0 µg/mL (≈ 205 µM); MIC (Staph. aureus 152): 40.0 µg/mL (≈ 102 µM); MIC (M. suipneumoniae NB12): 10.0 µg/mL (≈ 25.6 µM); MIC [7]: 10.0 µg/mL (≈ 25.6 µM); MIC (M. gallisepticum S6): 10.0 µg/mL (≈ 25.6 µM); MIC (M. suipneumoniae LABER): 5 µg/mL (≈ 12.8 µM); MIC (M. pneumoniae ATCC 15492): 10.0 µg/mL (≈ 25.6 µM); MIC (M. suipneumoniae TAM 6N): 10.0 µg/mL (≈ 25.6 µM); MIC (M. suipneumoniae HK(2)): 10.0 µg/mL (≈ 25.6 µM); MIC (M. hyorhinis ATCC 23234): 5 µg/mL (≈ 12.8 µM); MIC (M. suipneumoniae MS16): 5 µg/mL (≈ 12.8 µM); MIC (M. suipneumoniae UCD 1): 10.0 µg/mL (≈ 25.6 µM); MIC [8]: 10.0 µg/mL (≈ 25.6 µM); MIC (Staph. aureus Oxford [9]): 25.0 µg/mL (≈ 64 µM); MIC [10]: > 100.0 µg/mL; MIC (Bacillus subtilis 6633): 100.0 µg/mL (≈ 256 µM); MIC (Sarcina lutea 8340): > 100.0 µg/mL; MIC [11]: 10 µg/mL (≈ 25.6 µM); MIC (E. coli ESS): 50.0 µg/mL (≈ 128 µM); MIC (Strep. pneumoniae CN33): 100.0 µg/mL (≈ 256 µM); MIC (Staph. aureus Russell): 50.0 µg/mL (≈ 128 µM); MIC (E. coli NCTC 10418 [12]): > 100.0 µg/mL; MIC (Staph. aureus W2827): 50.0 µg/mL (≈ 128 µM); MIC (Strep. 641848-C): 100.0 µg/mL (≈ 256 µM); MIC [13]: 100.0 µg/mL (≈ 256 µM); MIC (Strep. 2788-B): > 100.0 µg/mL; MIC (K. aerogenes A): > 100.0 µg/mL; MIC (Past. multocida 1633): 50.0 µg/mL (≈ 128 µM); MIC (Strep. faecalis I): > 100.0 µg/mL; MIC [14]: 10.0 µg/mL (≈ 25.6 µM); MIC (P. mirabilis 889): > 100.0 µg/mL; MIC [15]: > 100.0 µg/mL; MIC [16]: 10 µg/mL (≈ 25.6 µM); MIC [17]: 10.0 µg/mL (≈ 25.6 µM); MIC [18]: 0.5 µg/mL (≈ 1.28 µM); MIC [19]: 5 µg/mL (≈ 12.8 µM); MIC (M. suipneumoniae JF435): 10.0 µg/mL (≈ 25.6 µM)
